Results taken from patent US6355799B1, “Substituted benzene compounds, process for their preparation, and herbicidal and defoliant compositions containing them” (ISK Americas Incorporated, priority 1997, dated 2002).

Key:
Format in all cases: in vivo
[1] = tested on: barnyardgrass (Echinochloa crus-galli, ECHCG); test: Post-emerge test, greenhouse herbicide activity screening; settings: post-emerge, 14 days after application, rating scale 0-100
Description: (§1) A standard greenhouse herbicide activity screening system was used to evaluate the herbicidal efficacy and crop safety of these test compounds. Seven broadleaf weed species including redroot pigweed (Amaranthus retroflexus, AMARE, velvetleaf (Abutilon theophrasti, ABUTH), sicklepod (Cassia obtusifolia, CASOB), ivyleaf morningglory (Ipomoea hederacea, IPOHE), lambsquarters (Chenopodium album, CHEAL), common ragweed (Ambrosia artemisizfolia L., AMBEL), and cocklebur (Xanthium strumarium, XANST) were used as test species. Four grass weed species including green foxtail (Setaria viridis, SETVI), barnyardgrass (Echinochloa crus-galli, ECHCG), johnsongrass (Sorghum halepense, SORHA), and large crabgrass (Digitaria sanguinalis, DIGSA) were also used. In addition, three crop species, field corn (Zea mays L., var. Dekalb 535, CORN), soybean (Glycine max L., var. Pella 86, SOY), and is upland rice (Oryza sp., var. Tebonnet, RICE) were included.
(§2) All plants were grown in 10 cm square plastic pots which were filled with a sandy loam soil mix. For pre-emerge tests, seeds were planted one day prior to application of the test compounds. For post-emerge tests, seeds were planted 8-21 days prior to the test to allow emergence and good foliage development prior to application of the test substances. At the time of the post-emerge application, plants of all species were usually at the 2-3 leaf stage of development.
(§3) All test compounds Were dissolved in acetone and applied to the test units in a volume of 187 l /ha. Test materials were applied at rates ranging from 15 g ai/ha to 1000 g ai/ha using a track sprayer equipped with a TJ8001E even flow flat fan spray nozzle. Plants were arranged on a shelf so that the top of the canopy (post-emerge) or top of the soil surface (pre-emerge) was 40-45 cm below the nozzle. Pressurized air was used to force the test solution through the nozzle as it was mechanically advanced (via electrically driven chain drive) over the top of all test plants/pots. This application simulates a typical commercial field herbicide application.
(§4) In the post-emerge test, a commercial non-ionic surfactant was also included (0.25% v/v) to enhance wetting of the leaf surfaces of target plants. Immediately after application, test units of the pre-emerge applications were watered at the soil surface to incorporate the test materials. Subsequently, these test units were bottom-watered. Post-emerge test units were always bottom-watered.
(§5) At 14 days after application of the test materials, phytotoxicity ratings were recorded. A rating scale of 0-100 was used as previously described in Research Methods in Weed Science, 2nd edition, B. Truelove, Ed., Southern Weed Science Society, Auburn University, Auburn, Ala. 1977. Briefly, “0” corresponds to no damage and “100” corresponds to complete death of all plants in the test unit. This scale was used both to determine efficacy against weed species and damage to crop species. Herbicide activity data for various compounds of this invention, which are shown by compound No. in Tables 1-8, are shown in Tables 11 and 12.

[2] = tested on: green foxtail (Setaria viridis, SETVI); test: as above; settings: post-emerge, 14 days after application, rating scale 0-100
Description: as §1, §2, §3, §4, §5

[3] = tested on: ivyleaf morningglory (Ipomoea hederacea, IPOHE); test: as above; settings: post-emerge, 14 days after application, rating scale 0-100
Description: as §1, §2, §3, §4, §5

[4] = tested on: redroot pigweed (Amaranthus retroflexus, AMARE); test: as above; settings: post-emerge, 14 days after application, rating scale 0-100
Description: as §1, §2, §3, §4, §5

[5] = tested on: sicklepod (Cassia obtusifolia, CASOB); test: as above; settings: post-emerge, 14 days after application, rating scale 0-100
Description: as §1, §2, §3, §4, §5

[6] = tested on: lambsquarters (Chenopodium album, CHEAL); test: as above; settings: post-emerge, 14 days after application, rating scale 0-100
Description: as §1, §2, §3, §4, §5

[7] = tested on: large crabgrass (Digitaria sanguinalis, DIGSA); test: as above; settings: post-emerge, 14 days after application, rating scale 0-100
Description: as §1, §2, §3, §4, §5

[8] = tested on: velvetleaf (Abutilon theophrasti, ABUTH); test: as above; settings: post-emerge, 14 days after application, rating scale 0-100
Description: as §1, §2, §3, §4, §5

[9] = tested on: barnyardgrass (Echinochloa crus-galli, ECHCG); test: Pre-emerge test, greenhouse herbicide activity screening; settings: pre-emerge, 14 days after application, scale 0-100
Description: as §1, §2, §3, §4, §5

[10] = tested on: green foxtail (Setaria viridis, SETVI); test: as above; settings: pre-emerge, 14 days after application, scale 0-100
Description: as §1, §2, §3, §4, §5

[11] = tested on: ivyleaf morningglory (Ipomoea hederacea, IPOHE); test: as above; settings: pre-emerge, 14 days after application, scale 0-100
Description: as §1, §2, §3, §4, §5

[12] = tested on: sicklepod (Cassia obtusifolia, CASOB); test: as above; settings: pre-emerge, 14 days after application, scale 0-100
Description: as §1, §2, §3, §4, §5

[13] = tested on: lambsquarters (Chenopodium album, CHEAL); test: as above; settings: pre-emerge, 14 days after application, scale 0-100
Description: as §1, §2, §3, §4, §5

[14] = tested on: large crabgrass (Digitaria sanguinalis, DIGSA); test: as above; settings: pre-emerge, 14 days after application, scale 0-100
Description: as §1, §2, §3, §4, §5

[15] = tested on: velvetleaf (Abutilon theophrasti, ABUTH); test: as above; settings: pre-emerge, 14 days after application, scale 0-100
Description: as §1, §2, §3, §4, §5

[16] = tested on: upland rice (Oryza sp., var. Tebonnet, RICE); test: Pre-emerge test, crop safety; settings: pre-emerge, 14 days after application, scale 0-100
Description: as §1, §2, §3, §4, §5

[17] = tested on: field corn (Zea mays L., var. Dekalb 535, CORN); test: Pre-emerge test, crop safety; settings: pre-emerge, 14 days after application, scale 0-100
Description: as §1, §2, §3, §4, §5

[18] = tested on: upland rice (Oryza sp., var. Tebonnet, RICE); test: Post-emerge test, crop safety; settings: post-emerge, 14 days after application, rating scale 0-100
Description: as §1, §2, §3, §4, §5

[19] = tested on: field corn (Zea mays L., var. Dekalb 535, CORN); test: Post-emerge test, crop safety; settings: post-emerge, 14 days after application, rating scale 0-100
Description: as §1, §2, §3, §4, §5

[20] = tested on: redroot pigweed (Amaranthus retroflexus, AMARE); test: Pre-emerge test, greenhouse herbicide activity screening; settings: pre-emerge, 14 days after application, scale 0-100
Summary of the method: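 Rating: 0–100 visual injury, 14 DAA. Application: acetone, 187 l/ha, 15–1000 g ai/ha, flat-fan track sprayer with nozzle 40–45 cm above soil or canopy. Post-emerge runs used 0.25% v/v surfactant on 2–3 leaf plants.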

| SMILES | ECHCG phytotoxicity rating ([1]; 63 g ai/ha) | ECHCG phytotoxicity rating ([1]; 250 g ai/ha) | SETVI phytotoxicity rating ([2]; 63 g ai/ha) | SETVI phytotoxicity rating ([2]; 250 g ai/ha) | IPOHE phytotoxicity rating ([3]; 63 g ai/ha) | IPOHE phytotoxicity rating ([3]; 250 g ai/ha) | AMARE phytotoxicity rating ([4]; 63 g ai/ha) | AMARE phytotoxicity rating ([4]; 250 g ai/ha) | CASOB phytotoxicity rating ([5]; 63 g ai/ha) | CASOB phytotoxicity rating ([5]; 250 g ai/ha) | CHEAL phytotoxicity rating ([6]; 63 g ai/ha) | CHEAL phytotoxicity rating ([6]; 250 g ai/ha) | DIGSA phytotoxicity rating ([7]; 63 g ai/ha) | DIGSA phytotoxicity rating ([7]; 250 g ai/ha) | ABUTH phytotoxicity rating ([8]; 63 g ai/ha) | ABUTH phytotoxicity rating ([8]; 250 g ai/ha) | phytotoxicity rating ECHCG ([9]; 63 g ai/ha) | phytotoxicity rating ECHCG ([9]; 250 g ai/ha) | phytotoxicity rating SETVI ([10]; 63 g ai/ha) | phytotoxicity rating SETVI ([10]; 250 g ai/ha) | other results |
| --- | --- | --- | --- | --- | --- | --- | --- | --- | --- | --- | --- | --- | --- | --- | --- | --- | --- | --- | --- | --- | --- |
| Cn1c(C(F)(F)F)cc(=O)n(-c2ccc(C#N)cc2NC(=O)C=Cc2ccccc2)c1=O [2-141] | 10 | 30 | 20 | 40 | 100 | 95 | 95 | 95 | 50 | 95 | 95 | 100 | 10 | 30 | 100 | 100 | 30 | 95 | 30 | 70 | phytotoxicity rating IPOHE ([11]; 63 g ai/ha): 40; phytotoxicity rating IPOHE ([11]; 250 g ai/ha): 100; phytotoxicity rating CASOB ([12]; 63 g ai/ha): 30; phytotoxicity rating CASOB ([12]; 250 g ai/ha): 90; phytotoxicity rating CHEAL ([13]; 63 g ai/ha): 100; phytotoxicity rating CHEAL ([13]; 250 g ai/ha): 100; phytotoxicity rating DIGSA ([14]; 63 g ai/ha): 35; phytotoxicity rating DIGSA ([14]; 250 g ai/ha): 70; phytotoxicity rating ABUTH ([15]; 63 g ai/ha): 100; phytotoxicity rating ABUTH ([15]; 250 g ai/ha): 100; phytotoxicity rating RICE (crop damage) ([16]; 63 g ai/ha): 30; phytotoxicity rating RICE (crop damage) ([16]; 250 g ai/ha): 70; phytotoxicity rating CORN (crop damage) ([17]; 63 g ai/ha): 0; phytotoxicity rating CORN (crop damage) ([17]; 250 g ai/ha): 45; RICE phytotoxicity rating (crop damage) ([18]; 63 g ai/ha): 15; RICE phytotoxicity rating (crop damage) ([18]; 250 g ai/ha): 65; CORN phytotoxicity rating (crop damage) ([19]; 63 g ai/ha): 5; CORN phytotoxicity rating (crop damage) ([19]; 250 g ai/ha): 10; phytotoxicity rating AMARE ([20]; 63 g ai/ha): 100; phytotoxicity rating AMARE ([20]; 250 g ai/ha): 100 |
| COc1c(C#N)cc(F)c(-n2c(=O)cc(C(F)(F)F)n(C)c2=O)c1NC(=O)c1ccc2ccccc2c1 [2-180] | 40 | 60 | 60 | 70 | 100 | 100 | 100 | 100 | 100 | 100 | 100 | 100 | 40 | 40 | 100 | 100 | 10 | 80 | 30 | 90 | phytotoxicity rating IPOHE ([11]; 63 g ai/ha): 60; phytotoxicity rating IPOHE ([11]; 250 g ai/ha): 100; phytotoxicity rating CASOB ([12]; 63 g ai/ha): 40; phytotoxicity rating CASOB ([12]; 250 g ai/ha): 50; phytotoxicity rating CHEAL ([13]; 63 g ai/ha): 100; phytotoxicity rating CHEAL ([13]; 250 g ai/ha): 100; phytotoxicity rating DIGSA ([14]; 63 g ai/ha): 20; phytotoxicity rating DIGSA ([14]; 250 g ai/ha): 90; phytotoxicity rating ABUTH ([15]; 63 g ai/ha): 100; phytotoxicity rating ABUTH ([15]; 250 g ai/ha): 100; phytotoxicity rating RICE (crop damage) ([16]; 63 g ai/ha): 40; phytotoxicity rating RICE (crop damage) ([16]; 250 g ai/ha): 70; phytotoxicity rating CORN (crop damage) ([17]; 63 g ai/ha): 0; phytotoxicity rating CORN (crop damage) ([17]; 250 g ai/ha): 5; RICE phytotoxicity rating (crop damage) ([18]; 63 g ai/ha): 20; RICE phytotoxicity rating (crop damage) ([18]; 250 g ai/ha): 65; CORN phytotoxicity rating (crop damage) ([19]; 63 g ai/ha): 5; CORN phytotoxicity rating (crop damage) ([19]; 250 g ai/ha): 20; phytotoxicity rating AMARE ([20]; 63 g ai/ha): 100; phytotoxicity rating AMARE ([20]; 250 g ai/ha): 100 |
